Data from patent US7968521B2, “Stable cystal of protected pseudouridine” (Yamasa Corporation, priority 2005, dated 2011).

What was measured:
[1] = Stability (1): storage in a sealed vessel at 60° C. and a relative humidity of 30%, percent remaining by HPLC; type: physicochemical; settings: relative humidity 30%; for Percent remaining (%) Day 3 / Percent remaining (%) Day 14 / Percent remaining (%) Day 23: sealed vessel; for Percent remaining (%) Day 3: Day 3, HPLC; for Percent remaining (%) Day 14: Day 14, HPLC; for Percent remaining (%) Day 23: Day 23, HPLC
Procedure: (§1) The crystalline 5′-O-(4,4′-dimethoxytrityl)pseudouridine produced in Example 1 was maintained in a sealed vessel at 60° C. and a relative humidity of 30%. Thereafter, the percent remaining of the compound was determined through HPLC, and the value was compared with that of the same compound in amorphous form, which had been separately prepared, so as to evaluate stability.

[2] = Stability (2): storage in a desiccator at 25±2° C. and a relative humidity of 33%, 57% or 75%, percent remaining by HPLC; type: physicochemical; settings: fourteen days; for Percent remaining (%) RH 33% / Percent remaining (%) RH 57% / Percent remaining (%) RH 75%: desiccator, HPLC
Procedure: as §1, with “desiccator” for “sealed vessel”, “25±2°” for “60°”, “33%, 57%, or 75%. Fourteen days after,” for “30%. Thereafter,”, “stability. […] At a relative humidity of 75%, the stability clearly varied between the two samples.” for “stability.”

| Percent remaining (%) Day 3 [1] [%] | Percent remaining (%) Day 14 [1] [%] | Percent remaining (%) Day 23 [1] [%] | Percent remaining (%) RH 33% [2] [%] | Percent remaining (%) RH 57% [2] [%] | Percent remaining (%) RH 75% [2] [%] | thermal stability compared with the compound of amorphous form [1] | stability against moisture compared with the amorphous form ([2]; relative humidity 33%, 57% or 75%) | SMILES |
| --- | --- | --- | --- | --- | --- | --- | --- | --- |
| 97.8 | 88.6 | 62.1 | 98.0 | 96.7 | 0.1 |  |  | COc1ccc(C(OC[C@H]2O[C@@H](c3c[nH]c(=O)[nH]c3=O)[C@H](O)[C@@H]2O)(c2ccccc2)c2ccc(OC)cc2)cc1 [Amorphous, 5′-O-(4,4′-dimethoxytrityl)pseudouridine, reference compound] |
| 99.0 | 97.6 | 95.7 | 98.7 | 98.5 | 60.7 | higher thermal stability | more stable against moisture | COc1ccc(C(OC[C@H]2O[C@@H](c3c[nH]c(=O)[nH]c3=O)[C@H](O)[C@@H]2O)(c2ccccc2)c2ccc(OC)cc2)cc1 [Crystalline, 5′-O-(4,4′-dimethoxytrityl)pseudouridine] |
